Here are results for 1 substance from US20130295115A1, “COMPOSITIONS AND METHODS FOR TREATING […]” (priority 2010, published 2013).

For this assay, the system named is VSV. The class given is cell-based, Vesicular Stomatitis Virus.

In the case of Ammonium Iron(III) Citrate, the VSV binding result is reported as “no affect”.
